In ChEMBL document CHEMBL1201862, “PubChem BioAssay data set” (2004):
Activity calls are given as the source filed them.

What was measured:
[1] = test system: Streptococcus sp. 'group A'; assay: growth inhibition of control SK(-) GAS strain, dose response, counter-screen for streptokinase expression inhibitor project, luminescence, kanamycin, BacTiterGlo, confirmation (AID 1900); type: functional, organism-based
[2] = inhibitors of intracellular T. cruzi replication, confirmation, NIH3T3 host cells, beta-gal luminescence (AID 2044); type: functional, cell-based;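 note: intracellular parasites grown in NIH/3T3 mouse fibroblasts as host cells; luminescent beta-galactosidase reporter signal from transgenic T. cruzi replicating inside host cells; inhibitors lower the luminescence signal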
Streptokinase A = target: T1, Streptokinase A (Streptococcus pyogenes serotype M1, UniProt P10520); assay: S. pyogenes streptokinase expression inhibitors, potency, dose response, plasminogen activation absorbance, OD405 (AID 1914); type: functional, Streptococcus pyogenes M1 GAS;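 note: secreted streptokinase activity via plasminogen activation per viability signal from cell pellet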
T1 sequence (P10520 whole entry): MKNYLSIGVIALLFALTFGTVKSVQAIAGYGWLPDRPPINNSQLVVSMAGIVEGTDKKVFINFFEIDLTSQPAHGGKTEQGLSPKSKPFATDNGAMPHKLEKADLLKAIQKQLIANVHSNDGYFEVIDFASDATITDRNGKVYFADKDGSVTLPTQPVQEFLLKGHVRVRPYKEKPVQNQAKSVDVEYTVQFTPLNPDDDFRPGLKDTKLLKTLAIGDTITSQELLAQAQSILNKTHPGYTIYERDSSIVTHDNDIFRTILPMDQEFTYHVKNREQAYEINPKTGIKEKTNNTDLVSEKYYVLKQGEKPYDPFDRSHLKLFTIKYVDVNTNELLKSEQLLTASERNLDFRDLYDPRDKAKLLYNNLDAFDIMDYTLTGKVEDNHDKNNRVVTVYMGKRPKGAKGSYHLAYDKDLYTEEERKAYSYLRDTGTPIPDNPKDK

INS1 = assay: beta cell apoptosis inhibitors, cytokine rescue, dose response, luminescence, retest (AID 449756); type: functional, cell-based; settings: Rattus norvegicus;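 note: cell death triggered by IL-1 beta plus TNF-alpha plus IFN-gamma mixture; protective hits raise ATP signal compared with cytokine alone wells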
[3] = target: Photoreceptor-specific nuclear receptor (Homo sapiens, UniProt Q9Y5X4); type: functional;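 note: potency for compounds that break the NR2E3 corepressor complex and count as activators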
Chain of Photoreceptor-specific nuclear receptor (Q9Y5X4 whole entry): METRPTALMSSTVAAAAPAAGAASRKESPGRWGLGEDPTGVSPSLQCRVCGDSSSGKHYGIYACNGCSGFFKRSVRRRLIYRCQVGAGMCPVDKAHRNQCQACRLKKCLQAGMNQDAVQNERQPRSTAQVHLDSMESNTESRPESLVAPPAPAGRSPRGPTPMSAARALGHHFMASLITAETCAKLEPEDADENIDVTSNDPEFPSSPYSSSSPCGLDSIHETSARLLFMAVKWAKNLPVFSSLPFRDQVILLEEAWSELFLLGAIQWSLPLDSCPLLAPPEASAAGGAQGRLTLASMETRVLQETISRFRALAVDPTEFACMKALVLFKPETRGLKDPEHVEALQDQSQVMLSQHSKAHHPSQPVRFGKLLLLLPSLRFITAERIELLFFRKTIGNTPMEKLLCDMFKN

[4] = target: T2, Sentrin-specific protease 6 (Homo sapiens, UniProt Q9GZR1); type: functional;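 note: Luminescence-based dose-response confirmatory assay of SENP6 inhibition, following up an ultra-high-throughput screen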
T2 sequence (Q9GZR1 whole entry): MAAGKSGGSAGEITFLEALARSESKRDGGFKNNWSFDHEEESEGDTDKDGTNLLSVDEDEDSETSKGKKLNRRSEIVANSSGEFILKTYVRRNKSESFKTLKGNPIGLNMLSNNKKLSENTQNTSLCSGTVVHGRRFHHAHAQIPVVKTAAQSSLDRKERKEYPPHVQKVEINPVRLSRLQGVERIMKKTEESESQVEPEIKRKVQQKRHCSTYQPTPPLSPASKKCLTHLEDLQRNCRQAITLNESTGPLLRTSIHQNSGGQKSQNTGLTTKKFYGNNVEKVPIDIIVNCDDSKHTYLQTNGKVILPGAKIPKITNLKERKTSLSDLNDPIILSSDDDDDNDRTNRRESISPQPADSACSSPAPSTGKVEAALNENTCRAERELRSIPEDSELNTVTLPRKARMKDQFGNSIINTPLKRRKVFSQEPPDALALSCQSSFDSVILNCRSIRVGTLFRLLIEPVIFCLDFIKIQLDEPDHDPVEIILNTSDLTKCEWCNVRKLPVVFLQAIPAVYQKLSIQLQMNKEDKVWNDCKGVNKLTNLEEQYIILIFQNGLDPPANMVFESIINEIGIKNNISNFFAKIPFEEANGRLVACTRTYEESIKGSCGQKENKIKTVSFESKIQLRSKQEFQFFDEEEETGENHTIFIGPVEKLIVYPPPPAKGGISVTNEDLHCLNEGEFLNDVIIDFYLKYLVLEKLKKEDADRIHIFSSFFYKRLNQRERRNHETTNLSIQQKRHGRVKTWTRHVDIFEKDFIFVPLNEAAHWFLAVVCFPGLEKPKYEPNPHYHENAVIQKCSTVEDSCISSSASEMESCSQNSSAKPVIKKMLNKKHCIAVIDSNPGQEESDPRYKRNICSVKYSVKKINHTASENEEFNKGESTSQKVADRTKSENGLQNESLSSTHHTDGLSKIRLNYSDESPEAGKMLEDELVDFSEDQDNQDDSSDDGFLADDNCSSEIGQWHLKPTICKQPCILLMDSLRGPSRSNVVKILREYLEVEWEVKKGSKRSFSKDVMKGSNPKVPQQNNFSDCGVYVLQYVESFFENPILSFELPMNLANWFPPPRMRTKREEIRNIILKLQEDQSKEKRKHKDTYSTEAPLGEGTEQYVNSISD

Cryptococcus neoformans = assay: PubChem AID 686997; type: functional, organism-based
Bcl-2-related protein A1 = target: T3, Bcl-2-related protein A1 (Mus musculus, UniProt Q07440); type: functional;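 note: confirmatory dose–response counterscreen on Bfl-1, used to check hits from a UBC13 polyubiquitin inhibitor campaign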
T3 sequence (Q07440 whole entry): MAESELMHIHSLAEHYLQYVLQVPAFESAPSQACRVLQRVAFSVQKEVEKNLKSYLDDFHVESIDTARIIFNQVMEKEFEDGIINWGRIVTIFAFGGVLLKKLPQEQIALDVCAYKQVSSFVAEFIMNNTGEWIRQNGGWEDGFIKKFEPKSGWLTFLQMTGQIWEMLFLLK

Genome polyprotein = Genome polyprotein (dengue virus type 2, UniProt P29990); assay: Dengue-2 NS5 methyltransferase inhibitors, primary screen, biochemical, confirmation dose response (AID 588689); type: functional
Chain of Genome polyprotein (P29990 2492-3391 limits assumed): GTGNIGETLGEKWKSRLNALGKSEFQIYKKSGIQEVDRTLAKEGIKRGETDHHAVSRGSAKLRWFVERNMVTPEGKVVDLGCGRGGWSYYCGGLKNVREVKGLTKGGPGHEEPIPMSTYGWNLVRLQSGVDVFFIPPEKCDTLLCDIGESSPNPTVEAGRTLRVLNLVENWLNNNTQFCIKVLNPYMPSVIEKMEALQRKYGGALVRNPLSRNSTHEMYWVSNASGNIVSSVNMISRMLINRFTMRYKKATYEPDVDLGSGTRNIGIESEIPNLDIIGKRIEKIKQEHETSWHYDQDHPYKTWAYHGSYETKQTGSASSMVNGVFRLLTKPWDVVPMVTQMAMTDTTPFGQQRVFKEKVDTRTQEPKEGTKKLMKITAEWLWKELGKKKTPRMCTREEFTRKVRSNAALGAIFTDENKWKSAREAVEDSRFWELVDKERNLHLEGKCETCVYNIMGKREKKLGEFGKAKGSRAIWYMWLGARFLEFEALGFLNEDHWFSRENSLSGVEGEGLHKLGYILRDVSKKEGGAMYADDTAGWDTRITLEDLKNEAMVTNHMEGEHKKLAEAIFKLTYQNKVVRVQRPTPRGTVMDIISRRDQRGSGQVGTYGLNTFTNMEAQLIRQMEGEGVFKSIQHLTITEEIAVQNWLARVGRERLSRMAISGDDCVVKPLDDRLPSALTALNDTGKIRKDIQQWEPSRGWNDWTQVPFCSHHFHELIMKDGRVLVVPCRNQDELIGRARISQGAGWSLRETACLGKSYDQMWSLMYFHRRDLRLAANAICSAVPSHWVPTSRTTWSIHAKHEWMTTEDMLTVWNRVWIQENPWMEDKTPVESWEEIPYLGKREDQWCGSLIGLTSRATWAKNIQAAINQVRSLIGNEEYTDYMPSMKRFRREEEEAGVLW

[5] = THP-1 cell cytotoxicity, dose response, cytotoxicity control for Vif-APOBEC3G degradation inhibitor project, THP-1 cells (AID 1117359); type: functional; settings: Human immunodeficiency virus 1, THP-1
[6] = NIH-3T3 fibroblast cytotoxicity, dose response, cytotoxicity control, cell-based, fluorescence, Alamar Blue, secondary assay (AID 2327); type: functional;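 note: NIH-3T3 mouse fibroblasts cultured with fluconazole at 8 µg/mL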
[7] = target: T4, Mannose-6-phosphate isomerase (Homo sapiens, UniProt P34949); assay: human PMI inhibitors, high substrate, primary screen, biochemical, fluorescence intensity, high mannose 6-phosphate (AID 1220)
T4 sequence (P34949 whole entry): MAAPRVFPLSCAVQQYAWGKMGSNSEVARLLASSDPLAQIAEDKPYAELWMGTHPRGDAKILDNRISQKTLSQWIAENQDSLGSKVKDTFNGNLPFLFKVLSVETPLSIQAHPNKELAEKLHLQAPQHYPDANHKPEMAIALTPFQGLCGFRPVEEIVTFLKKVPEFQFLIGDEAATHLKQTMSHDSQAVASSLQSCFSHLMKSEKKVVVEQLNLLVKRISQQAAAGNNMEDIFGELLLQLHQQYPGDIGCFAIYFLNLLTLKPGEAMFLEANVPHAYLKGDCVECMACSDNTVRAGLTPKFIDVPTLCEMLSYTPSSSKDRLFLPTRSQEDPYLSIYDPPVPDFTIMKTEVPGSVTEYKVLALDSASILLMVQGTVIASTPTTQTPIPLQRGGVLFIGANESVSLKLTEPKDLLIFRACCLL

Large T antigen = Large T antigen (Simian virus 40, UniProt P03070); type: functional, Betapolyomavirus macacae;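 note: Confirmatory-stage PubChem screen for compounds that inhibit SV40 T antigen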
Chain of Large T antigen (P03070 whole entry): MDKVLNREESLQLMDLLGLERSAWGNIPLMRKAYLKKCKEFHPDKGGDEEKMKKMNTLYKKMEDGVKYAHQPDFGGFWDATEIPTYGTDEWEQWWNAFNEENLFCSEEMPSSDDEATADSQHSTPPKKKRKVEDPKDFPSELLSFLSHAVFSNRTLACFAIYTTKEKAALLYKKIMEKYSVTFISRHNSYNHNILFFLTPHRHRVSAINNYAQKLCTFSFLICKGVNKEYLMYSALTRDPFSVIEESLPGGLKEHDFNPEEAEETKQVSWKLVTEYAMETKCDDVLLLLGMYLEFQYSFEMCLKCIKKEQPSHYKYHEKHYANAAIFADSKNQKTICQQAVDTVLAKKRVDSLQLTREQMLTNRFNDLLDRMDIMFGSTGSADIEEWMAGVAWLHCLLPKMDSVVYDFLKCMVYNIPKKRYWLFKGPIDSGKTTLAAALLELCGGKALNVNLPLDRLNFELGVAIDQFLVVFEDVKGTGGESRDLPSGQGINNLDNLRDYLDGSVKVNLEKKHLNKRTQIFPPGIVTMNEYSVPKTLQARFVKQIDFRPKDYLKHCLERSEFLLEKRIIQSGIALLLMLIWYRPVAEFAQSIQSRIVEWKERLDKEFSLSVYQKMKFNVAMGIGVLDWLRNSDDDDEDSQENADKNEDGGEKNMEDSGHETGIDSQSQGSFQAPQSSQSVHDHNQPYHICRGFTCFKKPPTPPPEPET

[8] = C. albicans growth with fluconazole, confirmation, fluorescence, retest (AID 2467); type: functional, cell-based

CCCCCCCCCCOC(=O)Cn1c(COc2ccccc2)[n+](C)c2ccccc21
EC50 [1]: 6.91 µM (active) | EC50 [2]: 1.6 µM (active) | EC50 (Streptokinase A): > 150 µM (not active) | AC50 (INS1): 3.72 µM (active)

N#Cc1c(NC(=O)c2ccc(Br)o2)n(-c2ccccc2)c2nc3ccccc3nc12
IC50 [3]: > 39.8 µM (not active) | IC50 [4]: 2.03 µM (active)

CCOC(=O)c1c(-c2ccc(-c3ccccc3)cc2)csc1NC(=O)CNCCN(C)C
AC50 (Cryptococcus neoformans): 20.9 µM (active) | IC50 (Bcl-2-related protein A1): > 20 µM (inactive)

COc1cc(-c2nnc(SCc3cc(=O)oc4cc(O)c(O)cc34)o2)cc(OC)c1OC
IC50 (Genome polyprotein): > 100 µM (active) | CC50 [5]: > 40 µM (active) | EC50 [6]: > 150 µM (inactive) | IC50 [7]: > 50 µM (not active) | IC50 (Large T antigen): 2.8 µM (active) | EC50 [8]: > 38 µM (not active)
